In brackets after ≈: the same amount, converted by molar mass. Where two headings read alike, the source gives them in different places.
Tests used:
[1] = Equilibrium / saturation solubility in test media; format: physicochemical; details: ITZ, experimentally determined
[2] = Dissolution in Buffer Media with pH Transition (itraconazole); format: physicochemical
Description: (§1) Dissolution testing, based on pH change from acidic-to-neutral media, is performed according to USP 29 Apparatus 2 Guidelines (United States Pharmacopeial Convention. Chapter <711> Dissolution, Stage 6 Harmonization, Official Dec. 1, 2011. USP website: http://www.usp.org/sites/default/files/usp_pdf/EN/USPNF/2011-02-25711DISSOLUTION.pdf).
Where specified below, the USP method was modified to use smaller 100 mL glass vessels with matching sized paddles operated at a speed of 100 rpm in buffer media using a VanKel 7000 Dissolution Tester (VanKel Technology Group, Gary, N.C.).
Examples A2, A3, A5 and A6 and Controls A1-A6 were tested according to the Dissolution in Buffer Media with pH Transition Test method. […] The solution was left stirring for 120 minutes, after which 3 mL aliquots were drawn from each vessel. Immediately after the aliquots were removed from the vessels, 25 mL of 0.2 M tribasic sodium phosphate buffer was added to each vessel to produce in a dissolution media having a pH 6.8±0.05. Subsequently, 3 mL aliquots were drawn from each vessel after 135 min, 150 min, 180 min, 210 min, 240 min, and 300 min. The aliquots were then analyzed to determine the concentration of itraconazole present in the media. The results were recorded in μg/mL.
Since only one sample was collected before the pH transition, the AUC, Tmax and Cmax were calculated based on the results following pH transition.

[3] = itraconazole, cited from earlier work
[4] = itraconazole; cited from earlier work
[5] = Dissolution in Biorelevant Media with pH Transition (itraconazole, FaSSGF to FaSSIF); format: physicochemical
Description: as §1
Where specified below, the USP method was modified to use smaller 100 mL glass vessels with matching sized paddles operated at a […] speed of 100 rpm in biorelevant media using a VanKel 7000 Dissolution Tester (VanKel Technology Group, Gary, N.C.).
Biorelevant media is prepared using FaSSIF, FeSSIF & FaSSGF Powder (biorelevant.com) a commercial source of sodium taurocholate and lecithin, hereafter abbreviated “SIF Powder.” Fasted state simulated gastric fluid (FaSSGF) and Fasted state simulated intestinal fluid (FaSSIF) are prepared using the formula provided by the vendor at http://biorelevant.com/fassif-fessif-fassgf-dissolution-media/fasted-fed-state-simulated-intestinal-gastric-fluid/how-to-make/, after specifying the desired volume quantity of medium to be prepared. For example, for 500 mL of FaSSGF, the test medium contains sodium chloride, 1 g, and SIF Powder, 30 mg. Solids are dissolved in approximately 480 mL deionized water. The FaSSGF solution is adjusted to a final pH of 1.6 using concentrated hydrochloric acid, and brought to a final volume of 500 mL by adding deionized water.
For two-stage dissolution testing, which consists of a gastric stage followed by an intestinal phase, the compound of interest is first added to a volume of FaSSGF that is equivalent to ¾ of the final test volume. For example, if the test vessel is 100 mL, the volume of FaSSGF is 75 mL. After allowing dissolution to proceed for 2 hours or another specified time interval, 25 mL of a Transition Medium is added to create a final volume of 100 mL in this example, with a final pH of 6.5. The final medium is equivalent in composition to FaSSIF, as per the formula provided at the above link at biorelevant.com.
The Transition Medium is prepared first by making Transition Buffer, 500 mL, which contains sodium chloride, 9.37 g, sodium hydroxide, 2.5 g, sodium phosphate monobasic dihydrate, 8.94 g. […] Larger quantities are prepared as required, maintaining the relative amounts each of Transition Buffer and SIF Powder.
The dissolution test is performed by weighing the test formulation containing the test compound, adjusting weights to achieve an equivalent amount of test compound across the various test formulations. […] Starting time for the dissolution test is recorded with the addition of the first drop. […]

[6] = oral, taken immediately after a full meal or with an acidic beverage; cited from earlier work
[7] = itraconazole, assumed value; cited from earlier work
[8] = after pH transition to FaSSIF pH 6.5±0.05

## CCC(C)n1ncn(-c2ccc(N3CCN(c4ccc(OCC5COC(Cn6cncn6)(c6ccc(Cl)cc6Cl)O5)cc4)CC3)cc2)c1=O (stereo not drawn) [Control A1, Itraconazole]
[1]
  solubility in FaSSIF medium: 0.08 µg/mL (≈ 0.113 µM)
[2]; buffer, after pH transition to 6.8±0.05
  Neutral Phase Tmax: 3.50 h
[2]; buffer, after pH transition to 6.8±0.05, up to 300 min
  Neutral Phase AUC (SD) (μg · hr/mL): 0.218 (0.078) μg · hr/mL
[2]; buffer, after pH transition to 6.8±0.05 with 0.2 M tribasic sodium phosphate
  Neutral Phase Cmax: 61 ng/mL
[2]; itraconazole concentration at 120 minutes in 75 mL 0.1 N HCl pH 1, 6 mg itraconazole equivalent
  Acid Phase C120: 1.50 µg/mL
[3]; acidic media
  reported aqueous solubility: 4 µg/mL
[3]; neutral pH
  reported aqueous solubility: 0.001 µg/mL
[4]
  log P: 6.2
  pKa: 3.7
[5]; [8]
  Neutral Phase AUC (SD) (μg · hr/mL): 0.75 (0.221) μg · hr/mL
  Neutral Phase Cmax: 291 ng/mL
  Neutral Phase Tmax: 2.25 h
[5]; itraconazole concentration at 120 minutes in 75 mL FaSSGF, 6 mg itraconazole equivalent
  Acid Phase C120: 0.112 µg/mL
[6]
  maximum absorption: 55%
[7]
  assumed solubility in 0.1 N HCl: 4 µg/mL

From patent US20160235677A1, “METHOD OF CONVERTING A CRYSTALLINE COMPOUND TO AN AMORPHOUS COMPOUND, METHOD OF INCREASING THE SOLUBILITY OF A CRYSTALLINE COMPOUND IN A BIORELEVANT FLUID, AND NANOPARTICLES THAT ACHIEVE SUPERSATURATION” (Nanocopoeia, LLC., priority 2014, published 2016)
